Reference: US9296741B2, “Bromodomain inhibitors” (priority 2012, dated 2016)
Marks after values point to notes of the source that are not given here.

Assays:
[1] = target: human BRD4 first bromodomain (BDI_K57-E168) (Homo sapiens (Human), UniProt O60885); assay: TR-FRET bromodomain binding assay, BRD4 first bromodomain
[2] = target: human BRD4 second bromodomain (BDII_E352-M457) (Homo sapiens (Human), UniProt O60885); assay: TR-FRET bromodomain binding assay, BRD4 second bromodomain
[3] = test system: breast cancer cell line MX-1; assay: MX-1 cell line proliferation assay; assay type: cell-based, human; details: Homo sapiens, MX1, 72 h; MX-1 cells, 3-day proliferation, Cell Titer Glo; read-out: Cellular proliferation: EC50
SKM1 = assay: Proliferation panel assay, AML SKM1; assay type: cell-based; details: Homo sapiens, SKM-1, read-out: Cellular Proliferation EC50
Raji = assay: Proliferation panel assay, AML Raji; assay type: cell-based; details: Homo sapiens, Burkitt lymphoma, read-out: Cellular Proliferation EC50
EJ-1 = assay: Proliferation panel assay, Bladder EJ-1; assay type: cell-based; details: EJ1, read-out: Cellular Proliferation EC50
MDAMB231 = assay: Proliferation panel assay, Breast MDAMB231; assay type: cell-based; details: Homo sapiens, MDA-MB-231, read-out: Cellular Proliferation EC50
MDAMB453 = assay: Proliferation panel assay, Breast MDAMB453; assay type: cell-based; details: Homo sapiens, MDA-MB-453, read-out: Cellular Proliferation EC50
GEO = assay: Proliferation panel assay, Colon GEO; assay type: cell-based; details: read-out: Cellular Proliferation EC50
DLD-1 = assay: Proliferation panel assay, Colon DLD-1; assay type: cell-based; details: Homo sapiens, read-out: Cellular Proliferation EC50
D54MG = assay: Proliferation panel assay, Glioblastoma D54MG; assay type: cell-based; details: read-out: Cellular Proliferation EC50
FaDu = assay: Proliferation panel assay, Head & Neck FaDu; assay type: cell-based; details: Homo sapiens, read-out: Cellular Proliferation EC50
HepG2 = assay: Proliferation panel assay, Hepatocellular HepG2; assay type: cell-based; details: Homo sapiens, read-out: Cellular Proliferation EC50
A-375 = assay: Proliferation panel assay, Melanoma A-375; assay type: cell-based; details: Homo sapiens, read-out: Cellular Proliferation EC50
OPM2 = assay: Proliferation panel assay, Multiple Myeloma OPM2; assay type: cell-based; details: Homo sapiens, OPM-2, read-out: Cellular Proliferation EC50
RPMI-8226 = assay: Proliferation panel assay, Multiple Myeloma RPMI-8226; assay type: cell-based; details: Homo sapiens, read-out: Cellular Proliferation EC50
NCI-H929 = assay: Proliferation panel assay, Multiple Myeloma NCI-H929; assay type: cell-based; details: Homo sapiens, read-out: Cellular Proliferation EC50
Ramos = assay: Proliferation panel assay, NHL Ramos; assay type: cell-based; details: Homo sapiens, read-out: Cellular Proliferation EC50
Ly18 = assay: Proliferation panel assay, NHL Ly18; assay type: cell-based; details: read-out: Cellular Proliferation EC50
H1299 = assay: Proliferation panel assay, NSCLC H1299; assay type: cell-based; details: Homo sapiens, NCI-H1299, read-out: Cellular Proliferation EC50
H1975 = assay: Proliferation panel assay, NSCLC H1975; assay type: cell-based; details: Homo sapiens, NCI-H1975, read-out: Cellular Proliferation EC50
H460 = assay: Proliferation panel assay, NSCLC H460; assay type: cell-based; details: Homo sapiens, NCI-H460, read-out: Cellular Proliferation EC50
HPAC = assay: Proliferation panel assay, Pancreas HPAC; assay type: cell-based; details: Homo sapiens, read-out: Cellular Proliferation EC50
BxPC3FP5 = assay: Proliferation panel assay, Pancreas BxPC3FP5; assay type: cell-based; details: read-out: Cellular Proliferation EC50
PC3M = assay: Proliferation panel assay, Prostate PC3M; assay type: cell-based; details: Homo sapiens, PC-3M, read-out: Cellular Proliferation EC50
786-0 = assay: Proliferation panel assay, RCC 786-0; assay type: cell-based; details: Homo sapiens, read-out: Cellular Proliferation EC50
SK-LMS-1 = assay: Proliferation panel assay, Sarcoma SK-LMS-1; assay type: cell-based; details: Homo sapiens, read-out: Cellular Proliferation EC50
[4] = Human liver microsome stability assay; assay type: in vitro ADME; details: both sexes, human, microsomes, pH 7.4
[5] = Rat liver microsome stability assay; assay type: in vitro ADME; details: rat liver microsomes (male Sprague-Dawley), 0.5 μM test compound, 0.25 mg/mL microsomal protein, pH 7.4, 37° C.; read-out: Stability in rat liver microsomes (t1/2 in minutes)
[6] = Mouse liver microsome stability assay; assay type: in vitro ADME; details: male, CD1, mouse, microsomes, pH 7.4
[7] = test system: LPS induced IL-6 production; assay: LPS (lipopolysaccharide) induced IL-6 production mouse assay; assay type: in vivo; details: Mus musculus, read-out: Inhibition of LPS induced IL-6 production in Mice, % inhibition at 3 mg/kg; 3 mg/kg oral, 1 h before LPS; serum IL-6 2 h after LPS
[8] = test system: MX-1 human breast cancer xenograft tumors; assay: Xenograft tumor growth inhibition assay, MX-1; assay type: in vivo, mouse; details: MX-1, PO, BID (5 on, 3 off)x2, vehicle F
[9] = test system: Ramos human cancer cell xenograft; assay: Xenograft efficacy study, Ramos; assay type: in vivo, mouse; details: 3.125 mg/kg/day, PO, BID (5 d on, 3 d off)x2, vehicle F
[10] = test system: rat collagen induced arthritis (rCIA) paw swelling; details: rCIA, dosed at 3 mg/kg (positive control) once daily day 10-17

| SMILES | Ki [1] [nM] | Ki [2] [nM] | EC50 [3] [nM] | EC50 (SKM1) [nM] | EC50 (Raji) [nM] | EC50 (EJ-1) [nM] | EC50 (MDAMB231) [nM] | EC50 (MDAMB453) [nM] | EC50 (GEO) [nM] | EC50 (DLD-1) [nM] | EC50 (D54MG) [nM] | EC50 (FaDu) [nM] | EC50 (HepG2) [nM] | EC50 (A-375) [nM] | EC50 (OPM2) [nM] | EC50 (RPMI-8226) [nM] | EC50 (NCI-H929) [nM] | EC50 (Ramos) [nM] | EC50 (Ly18) [nM] | EC50 (H1299) [nM] | other results |
| --- | --- | --- | --- | --- | --- | --- | --- | --- | --- | --- | --- | --- | --- | --- | --- | --- | --- | --- | --- | --- | --- |
| Cn1cc(-c2cc(NS(C)(=O)=O)ccc2Oc2ccccc2)c2cc[nH]c2c1=O [Example 4, N-[3-(6-methyl-7-oxo-6,7-dihydro-1H-pyrrolo[2,3-c]pyridin-4-yl)-4-phenoxyphenyl]methanesulfonamide] | 1.4 | 2 | 16.4 | 5 | 6 | 202 | 220 | 20 | 80 | 200 | 38 | 20 | 74.6 | 20 | 1 | 11 | 3 | 20 | 20 | 60 | EC50 (H1975): 20 nM; EC50 (H460): 3770 nM; EC50 (HPAC): 50 nM; EC50 (BxPC3FP5): 10 nM; EC50 (PC3M): 70 nM; EC50 (786-0): 11 nM; EC50 (SK-LMS-1): 25 nM; half-life at 0.5 μM [4]: 59 min; half-life at 0.5 μM [5]: 4 min; half-life at 0.5 μM [6]: 57 min; inhibition in vivo at 3 mg/kg [7]: 69%; % TGD (tumor growth delay) ([8]; 12.5 mg/kg/day): 70*** %; % TGI (tumor growth inhibition) ([8]; 12.5 mg/kg/day): 73*** %; % removed from study ([8]; 12.5 mg/kg/day): 10%; % TGD (tumor growth delay) ([8]; 25 mg/kg/day): 81*** %; % TGI (tumor growth inhibition) ([8]; 25 mg/kg/day): 77*** %; % removed from study ([8]; 25 mg/kg/day): 30%; % TGD (tumor growth delay) [9]: 27* %; % TGI (tumor growth inhibition) [9]: 19%; % removed from study [9]: 0% |
| Cn1nc(-c2cc(NS(C)(=O)=O)ccc2Oc2ccccc2)c2cc(C(N)=O)[nH]c2c1=O [Example 78, 6-methyl-4-{5-[(methylsulfonyl)amino]-2-phenoxyphenyl}-7-oxo-6,7-dihydro-1H-pyrrolo[2,3-d]pyridazine-2-carboxamide] | 2.5 | 1.8 | 400 | 58 | 84 | 2090 | 1220 | 240 | 1290 | 4970 | 2300 | 390 | 885 | 3610 | 39 | 1400 | 154 | 320 | 420 | 2570 | EC50 (H1975): 1370 nM; EC50 (H460): > 10000 nM; EC50 (HPAC): 1190 nM; EC50 (BxPC3FP5): 740 nM; EC50 (PC3M): 8110 nM; EC50 (786-0): 884 nM; EC50 (SK-LMS-1): 934 nM |
| C[C@]12C=CC(=O)C=C1CC[C@@H]1[C@@H]2[C@@H](O)C[C@@]2(C)[C@H]1CC[C@]2(O)C(=O)CO [Prednisolone, prednisolone, reference compound] |  |  |  |  |  |  |  |  |  |  |  |  |  |  |  |  |  |  |  |  | AUC of Paw Swelling, MEAN [10]: 0.67** ml-day |
